The structures appear in SMILES notation. pIC50: −log10 of the molar value. The source made the active and inactive calls. No cut-off for these calls is given here.

The record followed here is ChEMBL document CHEMBL4130591, “2-Arylidene Hydrazinecarbodithioates as Potent, Selective Inhibitors of Cystathionine γ-Lyase (CSE)” (ACS Med Chem Lett, 2017).

Assay [1] addresses T1, Cystathionine gamma-lyase (Homo sapiens, UniProt P32929). The experiment in a line: Inhibition of cystathionine gamma-lyase (unknown origin) assessed as reduction in cysteine formation from CPM using L-cystathionine pre-incubated for 15 min followed by L-cystathionine and CPM addition and measured after 7 mins by fluorescence-based primary assay.
Assay [2] concerns the target T1, Cystathionine gamma-lyase. As to the kind of experiment: Inhibition of cystathionine gamma-lyase (unknown origin).
The species entered for assay [3] is Homo sapiens. The experiment in a line: Selectivity for cystathionine gamma-lyase (unknown origin) over human recombinant CBS.
Assay [4] has as its target T1, Cystathionine gamma-lyase. The experiment in a line: Inhibition of cystathionine gamma-lyase (unknown origin) assessed as reduction in cysteine formation from CPM at 40 uM using L-cystathionine incubated for 7 mins by fluorescence-based primary assay.
Assay [5] has as its target T2, Cystathionine beta-synthase (Homo sapiens) (UniProt P35520).
T2 sequence (whole entry): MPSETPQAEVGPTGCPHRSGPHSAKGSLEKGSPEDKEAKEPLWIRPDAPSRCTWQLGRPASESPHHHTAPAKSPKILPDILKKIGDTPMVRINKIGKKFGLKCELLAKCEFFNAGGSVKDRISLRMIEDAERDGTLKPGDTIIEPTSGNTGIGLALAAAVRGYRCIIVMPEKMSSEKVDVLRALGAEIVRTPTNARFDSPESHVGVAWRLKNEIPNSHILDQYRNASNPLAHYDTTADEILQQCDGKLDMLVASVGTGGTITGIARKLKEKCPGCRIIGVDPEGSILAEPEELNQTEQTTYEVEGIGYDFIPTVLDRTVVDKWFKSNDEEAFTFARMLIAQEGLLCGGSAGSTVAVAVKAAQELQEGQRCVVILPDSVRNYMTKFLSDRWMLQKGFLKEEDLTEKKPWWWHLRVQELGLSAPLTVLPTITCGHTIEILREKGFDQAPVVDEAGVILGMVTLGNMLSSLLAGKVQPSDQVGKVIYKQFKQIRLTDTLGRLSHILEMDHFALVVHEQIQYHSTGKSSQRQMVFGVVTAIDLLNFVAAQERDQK
The experiment in a line: Inhibition of human recombinant CBS assessed as reduction in H2S production at 40 uM using AzMC probe by fluorescence based assay.

Assay [6] has as its target T1, Cystathionine gamma-lyase. The experiment in a line: Reversible inhibition of cystathionine gamma-lyase (unknown origin) assessed as reduction in cysteine formation from CPM using L-cystathionine at 50 uM incubated for 2 hrs followed by dialysis for 18 to 48 hrs by fluorescence-based primary assay.
Assay [7] has as its target T1, Cystathionine gamma-lyase. The experiment in a line: Inhibition of cystathionine gamma-lyase (unknown origin) assessed as reduction in H2S production at 40 uM using AzMC probe by fluorescence based assay.

T1 sequence (P32929 whole entry): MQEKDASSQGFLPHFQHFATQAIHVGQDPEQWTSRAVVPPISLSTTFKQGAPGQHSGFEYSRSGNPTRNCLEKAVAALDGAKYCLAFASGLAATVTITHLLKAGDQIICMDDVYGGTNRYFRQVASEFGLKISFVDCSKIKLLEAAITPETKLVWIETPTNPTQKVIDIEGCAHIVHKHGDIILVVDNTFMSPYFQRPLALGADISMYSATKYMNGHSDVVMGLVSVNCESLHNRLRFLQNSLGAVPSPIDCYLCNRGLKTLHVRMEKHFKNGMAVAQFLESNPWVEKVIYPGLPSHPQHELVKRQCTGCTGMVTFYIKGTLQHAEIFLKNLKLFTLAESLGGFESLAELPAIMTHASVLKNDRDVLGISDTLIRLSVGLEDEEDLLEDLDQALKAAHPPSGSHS

As to `CSC(=S)N/N=C/c1nn(C)cc1Cl`, the pIC50 in assay [1] was 5.22.

In the case of `CC(C)(C)c1ccc(NC(=O)CSC(=S)N/N=C/c2cnccn2)cc1`, in assay [1], the negative-log IC50 (pIC50) is below 4.00.

Take `O=C(CSC(=S)N/N=C/c1ccccn1)Nc1ccccc1`: the negative logarithm of the IC50 (pIC50) in assay [1] was 5.22.

In the case of `NCCO/C=C/[C@H](N)C(=O)O`, the pIC50 in assay [2] was 5.96.

On to `N=C1C=C(N)C(=O)c2[nH]c(=O)ccc21`, for which the negative logarithm of the IC50 (pIC50) in assay [2] was 5.20.

On to `Cc1ccc(NC(=O)CSC(=S)N/N=C/c2nn(C)cc2Cl)cc1`, for which the pIC50 in assay [1] is 5.52.

As to `O=C(CSC(=S)N/N=C/c1ncccc1F)Nc1ccc(C(F)(F)F)cc1`, in assay [1], the pIC50 is 5.22.

On to `CSC(=S)N/N=C/c1ccc(Br)cn1`, for which, in assay [1], the negative logarithm of the IC50 (pIC50) is 5.00.

Take `COc1ccc(NC(=O)CSC(=S)N/N=C/c2cccc(C)n2)cc1`: the pIC50 in assay [1] is 5.72.

Consider `CSC(=S)N/N=C/c1cc[nH]n1`, for which, in assay [1], the pIC50 was 4.82.

`COc1ccc(NC(=O)CSC(=S)N/N=C/c2ccccn2)cc1`: the pIC50 in assay [1] was 5.70.

For `Cc1ccc(NC(=O)CSC(=S)N/N=C/c2cccc(C)n2)cc1`, in assay [1], the pIC50 was 5.46.

On to `Cc1ccc(NC(=O)CSC(=S)N/N=C/c2ncccc2C)cc1`, for which the pIC50 in assay [1] is 5.60.

With `Cc1ccc(NC(=O)CSC(=S)N/N=C/c2ccccn2)cc1`, the negative logarithm of the IC50 (pIC50) in assay [1] is 5.70.

Take `CSC(=S)N/N=C/c1cccnc1`: the pIC50 in assay [1] was 4.30.

Consider `CSC(=S)N/N=C/c1cc2ccccc2n1C`, for which the pIC50 in assay [1] is below 4.00.

Regarding `CC(C)(C)c1ccc(NC(=O)CSC(=S)N/N=C/c2ccccn2)cc1`, the pIC50 in assay [1] is 5.52.

For the compound `CSC(=S)N/N=C/c1c[nH]c2ccccc12`, the negative logarithm of the IC50 (pIC50) in assay [1] is below 4.00.

Take `CSC(=S)N/N=C/c1cccc(Br)n1`: the pIC50 in assay [1] was 4.92.

Take `COc1ccc(NC(=O)CSC(=S)N/N=C/c2cscn2)cc1`: the pIC50 in assay [1] is 5.68.

Turning to `CSC(=S)N/N=C/c1cnccn1`, in assay [1], the pIC50 was 4.82.

In assay [2], `C#CCNC(=O)[C@H]1CSC(=O)N1` gave a pIC50 of 4.52.

As for `CC(C)(C)c1ccc(NC(=O)CSC(=S)N/N=C/c2ncccc2F)cc1`, the pIC50 in assay [1] is 5.70.

Turning to `COc1ccc(NC(=O)CSC(=S)N/N=C/c2nn(C)cc2Cl)cc1`, the pIC50 in assay [1] is 5.57.

Consider `CSC(=S)N/N=C/c1cccc(C)n1`, for which the pIC50 in assay [1] was 5.30.

On to `CSC(=S)N/N=C/c1ncccc1C`, for which the pIC50 in assay [1] is 5.22.

Consider `COc1ccc(NC(=O)CSC(=S)N/N=C/c2ncccc2F)cc1`, for which the Selectivity ratio in assay [3] is 400. Moreover, the pIC50 in assay [1] is 5.92.

As to `CC(C)(C)c1ccc(NC(=O)CSC(=S)N/N=C/c2ccncc2)cc1`, the pIC50 in assay [1] is 4.40.

On to `COc1ccc(NC(=O)CSC(=S)N/N=C/c2ccc(Br)cn2)cc1`, for which the negative-log IC50 (pIC50) in assay [1] is below 4.00.

Consider `CC(C)(C)c1ccc(NC(=O)CSC(=S)N/N=C/c2cccc(Br)n2)cc1`, for which the negative logarithm of the IC50 (pIC50) in assay [1] is 4.82.

In the case of `Cc1cccc(/C=N/NC(=S)SCC(=O)Nc2ccc(C(C)(C)C)cc2)n1`, the negative-log IC50 (pIC50) in assay [1] is 5.22.

Turning to `CC(C)(C)c1ccc(NC(=O)CSC(=S)N/N=C/c2cccnc2)cc1`, the pIC50 in assay [1] is 4.92.

`CSC1=NNC(c2ccccn2)S1` (stereo not given): the inhibition in assay [4] is above 30%. Also, the inhibition entry in assay [5] is “inactive”. The inhibition entry in assay [6] and in assay [7] was “Active” in each case. In addition, in assay [1], the negative-log IC50 (pIC50) was 5.22.

For `CS/C(S)=N/N=C(\C)c1ccccn1`, in assay [1], the pIC50 was below 4.00.

`CSC(=S)N/N=C/c1ccncc1`: the negative-log IC50 (pIC50) in assay [1] was 4.40.

For the compound `CSC(=S)N/N=C/c1ncccc1F`, the pIC50 in assay [1] was 5.30.

For the compound `O=C(CSC(=S)N/N=C/c1ccccn1)Nc1ccc(F)cc1`, the negative-log IC50 (pIC50) in assay [1] is below 4.00.

With `Cc1ccc(NC(=O)CSC(=S)N/N=C/c2ncccc2F)cc1`, the negative logarithm of the IC50 (pIC50) in assay [1] was 5.70.

Consider `Cc1ccc(NC(=O)CSC(=S)N/N=C/c2cccc(Br)n2)cc1`, for which the pIC50 in assay [1] is 5.00.

As for `O=C(CSC(=S)N/N=C/c1ccccn1)Nc1cccc(Br)c1`, the pIC50 in assay [1] was below 4.00.

With `Cn1cc(Cl)c(/C=N/NC(=S)SCC(=O)Nc2ccc(C(C)(C)C)cc2)n1`, in assay [1], the negative-log IC50 (pIC50) was 5.22.

As for `CC(C)(S)[C@@H](N)C(=O)O` [PENICILLAMINE], in assay [2], the pIC50 is 3.57.

For `CSC(=S)N/N=C/c1ccccn1`, the pIC50 in assay [1] was 5.22.

Take `Cc1ccc(NC(=O)CSC(=S)N/N=C/c2cccnc2)cc1`: in assay [1], the pIC50 is 4.60.

Consider `CSC(=S)N/N=C/c1cscn1`, for which, in assay [1], the pIC50 is 5.15.
